*1 amine or outer side, *2 acyl side, *3 side chain or, on linkers, in order; H or OH if unused. Where a SMILES comes first, the peptide text is derived from it. Bridges are numbered along the chain shown (N, C = ends). Roman numbers before positions name the chains, in order. [ ]: non-standard residue; d: D form. CO(CH2)2(OCH2CH2)17CO = O=C(CCOCCOCCOCCOCCOCCOCCOCCOCCOCCOCCOCCOCCOCCOCCOCCOCCOCCC(=O)[*:2])[*:1]; X1 = O=C(OCCOCCOCCOCCOCCOCCOCCOCCOCCOCCOCCOCCOCCOCCOCCOCCOC(=O)[*:2])[*:1]; X2 = O=C(OCCOCCOCCOCCOCCOCCOCCOCCOCCOCCOCCOCCOC(=O)[*:2])[*:1]; PEG12 = NCCOCCOCCOCCOCCOCCOCCOCCOCCOCCOCCOCCOCCC(=O)O; Phe(4-guanidino) = N=C(N)Nc1ccc(C[C@H](N)C(=O)O)cc1; hTyr = N[C@@H](CCc1ccc(O)cc1)C(=O)O; Hyp = O=C(O)[C@@H]1C[C@@H](O)CN1; tBuAla = CC(C)(C)C[C@H](N)C(=O)O; Tle = CC(C)(C)[C@H](N)C(=O)O

The target in one experiment is T1, VEGFR-2 (Homo sapiens, UniProt P35968).
T1 construct: endogenous in cells; host or cells: HUVEC
T1 sequence (P35968 20-1356): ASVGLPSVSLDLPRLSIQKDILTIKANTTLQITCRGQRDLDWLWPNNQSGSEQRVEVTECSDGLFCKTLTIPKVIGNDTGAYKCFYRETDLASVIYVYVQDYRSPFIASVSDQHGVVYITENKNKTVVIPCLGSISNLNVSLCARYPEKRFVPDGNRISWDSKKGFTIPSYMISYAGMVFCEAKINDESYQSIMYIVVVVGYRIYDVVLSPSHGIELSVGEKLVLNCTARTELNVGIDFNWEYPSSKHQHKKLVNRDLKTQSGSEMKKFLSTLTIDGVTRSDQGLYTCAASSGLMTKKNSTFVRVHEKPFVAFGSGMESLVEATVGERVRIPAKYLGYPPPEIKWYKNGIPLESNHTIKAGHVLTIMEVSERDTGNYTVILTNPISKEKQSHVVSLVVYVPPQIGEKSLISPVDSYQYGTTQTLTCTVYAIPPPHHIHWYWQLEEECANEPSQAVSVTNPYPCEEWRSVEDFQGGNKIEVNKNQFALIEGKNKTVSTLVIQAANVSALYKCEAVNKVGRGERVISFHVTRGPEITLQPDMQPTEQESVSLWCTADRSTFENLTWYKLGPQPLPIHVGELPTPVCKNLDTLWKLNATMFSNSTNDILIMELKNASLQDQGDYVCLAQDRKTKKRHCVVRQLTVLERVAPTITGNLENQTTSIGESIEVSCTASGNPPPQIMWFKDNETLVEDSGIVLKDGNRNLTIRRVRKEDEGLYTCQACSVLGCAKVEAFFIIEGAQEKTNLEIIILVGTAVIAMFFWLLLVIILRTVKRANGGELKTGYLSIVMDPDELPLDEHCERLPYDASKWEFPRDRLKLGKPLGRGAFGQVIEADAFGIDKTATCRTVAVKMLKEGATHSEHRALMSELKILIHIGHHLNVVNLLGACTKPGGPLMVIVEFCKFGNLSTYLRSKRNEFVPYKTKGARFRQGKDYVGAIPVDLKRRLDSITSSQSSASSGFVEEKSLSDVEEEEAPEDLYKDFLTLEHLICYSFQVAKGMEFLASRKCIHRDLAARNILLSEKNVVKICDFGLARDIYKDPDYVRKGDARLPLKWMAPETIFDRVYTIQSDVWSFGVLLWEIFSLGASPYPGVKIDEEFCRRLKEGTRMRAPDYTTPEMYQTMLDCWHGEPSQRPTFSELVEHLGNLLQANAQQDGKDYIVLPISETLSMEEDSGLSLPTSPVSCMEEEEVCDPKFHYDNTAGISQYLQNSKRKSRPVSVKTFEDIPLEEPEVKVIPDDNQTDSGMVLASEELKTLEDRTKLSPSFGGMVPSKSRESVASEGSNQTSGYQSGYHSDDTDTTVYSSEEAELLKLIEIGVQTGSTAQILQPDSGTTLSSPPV
Nature of the experiment: pVEGFR AlphaLISA assay (VEGFR-2 phosphorylation, p-Tyr1175) in HUVECs. In kind it is cell-based. The settings on record: 10 minutes stimulation, % activity, maximum VEGF165a signal = 100%, unstimulated = 0%, peptide 1.25, 5, 20 nM (dimer structures 42-57). How it is done: To evaluate the VEGFR-2 activation ability of the VEGFR-2 agonist peptides of the present invention, VEGFR-2 phosphorylation was verified. HUVECs were cultured using EGM™ -2 Endothelial Cell Growth Medium-2 BulletKit (LONZA; CC-3162). After detaching cells using Tryple (Thermo Fisher Scientific), they were seeded into a 96-well PDL-coated plate (Corning: 354461) at a density of 24,000 cells per well and cultured for 2 days. For starvation, the medium was replaced with EBM-2 medium (LONZA) containing 0.5% FBS (Thermo Fisher Scientific), 0.1% heparin (included with the above LONZA CC-3162), and 0.1% gentamicin (Nacalai), and the cells were cultured for 18 hours. Subsequently, Recombinant Human VEGF165a Protein (R&D Systems) or the peptide was added, and the cells were cultured in a CO2 incubator at 37°C. After 10 minutes of stimulation, cells were lysed using the Lysis Buffer included in the AlphaLISA SureFire Ultra VEGFR-2 (p-Tyr1175) Assay Kit (PerkinElmer) to lyse the cells. The procedure was performed according to the kit protocol, and signal detection was performed using a SpectraMax Paradigm multimode microplate reader (Molecular Devices). The obtained signals were analyzed using GraphPad Prism, and % activity was calculated with the maximum signal induced by VEGF165a set as 100% and the unstimulated control as 0%.
The VEGF165a concentration was evaluated at five points (0.08, 0.31, 1.25, 5, 20 nM) using 1/4-fold dilutions starting from 20 nM to determine the maximum value (100%). Peptide concentrations tested were: 3.2, 16, 80 nM for dimer structure number 1; 10, 100 nM for dimer structures numbers 2-41; and 1.25, 5, 20 nM for dimer structures numbers 42-57. […]
Peptides showing 50% or more activity at 10 nM were designated 2-A, those showing 50% or more activity at 100 nM were designated 2-B, and those showing 1% or more but less than 50% activity at 100 nM were designated 2-C.
Peptides showing 50% or more activity at 1.25 nM were designated 3-A, those showing 50% or more activity at 5 nM were designated 3-B, those showing 50% or more activity at 20 nM were designated 3-C, and those showing 1% or more but less than 50% activity at 20 nM were designated 3-D.
For orientation: Bead proximity is the source of the signal in Alpha formats.
Regarding `CC(C)C[C@@H]1NC(=O)[C@H](CC(=O)O)NC(=O)[C@H](CC(=O)O)NC(=O)[C@H](CCCCNC(=O)CCOCCOCCOCCOCCOCCOCCOCCOCCOCCOCCOCCOCCOCCOCCOCCOCCOCCC(=O)NCCCC[C@@H]2NC(=O)[C@H](C(C)C)NC(=O)[C@H](CC(=O)O)NC(=O)[C@H](C(C)(C)C)NC(=O)[C@H](Cc3c[nH]c4ccccc34)NC(=O)[C@H](Cc3c[nH]c4ccccc34)NC(=O)CSC[C@@H](C(=O)NCC(N)=O)NC(=O)[C@H](CC(=O)O)NC(=O)[C@H](C(C)C)NC(=O)[C@H](Cc3ccc(NC(=N)N)cc3)NC(=O)[C@H](Cc3ccc(O)cc3)NC(=O)[C@H](CC(C)C)NC(=O)[C@H](CC(=O)O)NC(=O)[C@H](CC(=O)O)NC2=O)NC(=O)[C@H](C(C)C)NC(=O)[C@H](CC(=O)O)NC(=O)[C@H](C(C)(C)C)NC(=O)[C@H](Cc2c[nH]c3ccccc23)NC(=O)[C@H](Cc2c[nH]c3ccccc23)NC(=O)CSC[C@@H](C(=O)NCC(N)=O)NC(=O)[C@H](CC(=O)O)NC(=O)[C@H](C(C)C)NC(=O)[C@H](Cc2ccc(NC(=N)N)cc2)NC(=O)[C@H](Cc2ccc(O)cc2)NC1=O` [compound 43] (I: {CH2CO}-WW[Tle]DVKDDLY[Phe(4-guanidino)]VDCG-NH2 / II: {CH2CO}-WW[Tle]DVKDDLY[Phe(4-guanidino)]VDCG-NH2; linker I:6-II:6 via CO(CH2)2(OCH2CH2)17CO; thioether I:N-I:14, II:N-II:14), the “pVEGFR2 Assay Results” value is reported as 3-C (50% or more activity at 20 nM).

In the case of `CC(C)[C@@H]1NC(=O)[C@H](CC(=O)O)NC(=O)[C@H](C(C)(C)C)NC(=O)[C@H](Cc2c[nH]c3ccccc23)NC(=O)[C@H](Cc2c[nH]c3ccccc23)NC(=O)CSC[C@@H](C(=O)NCC(N)=O)NC(=O)[C@@H]2C[C@@H](O)CN2C(=O)[C@H](CCc2ccc(O)cc2)NC(=O)[C@H](Cc2ccc(NC(=N)N)cc2)NC(=O)[C@H](Cc2ccc(O)cc2)NC(=O)[C@H](CC(C)(C)C)NC(=O)[C@H](CC(=O)O)NC(=O)[C@H](CC(=O)O)NC(=O)[C@H](CCCCNC(=O)OCCOCCOCCOCCOCCOCCOCCOCCOCCOCCOCCOCCOC(=O)NCCCC[C@@H]2NC(=O)[C@H](C(C)C)NC(=O)[C@H](CC(=O)O)NC(=O)[C@H](C(C)(C)C)NC(=O)[C@H](Cc3c[nH]c4ccccc34)NC(=O)[C@H](Cc3c[nH]c4ccccc34)NC(=O)CSC[C@@H](C(=O)NCC(N)=O)NC(=O)[C@@H]3C[C@@H](O)CN3C(=O)[C@H](CCc3ccc(O)cc3)NC(=O)[C@H](Cc3ccc(NC(=N)N)cc3)NC(=O)[C@H](Cc3ccc(O)cc3)NC(=O)[C@H](CC(C)(C)C)NC(=O)[C@H](CC(=O)O)NC(=O)[C@H](CC(=O)O)NC2=O)NC1=O` [compound 54] (I: {CH2CO}-WW[Tle]DVKDD[tBuAla]Y[Phe(4-guanidino)][hTyr][Hyp]CG-NH2 / II: {CH2CO}-WW[Tle]DVKDD[tBuAla]Y[Phe(4-guanidino)][hTyr][Hyp]CG-NH2; linker I:6-II:6 via X2; thioether I:N-I:14, II:N-II:14), the “pVEGFR2 Assay Results” value is 3-B (50% or more activity at 5 nM). Same read-out and setting: with `CC(C)C[C@@H]1NC(=O)[C@H](CC(=O)O)NC(=O)[C@H](CC(N)=O)NC(=O)[C@H](CCCCNC(=O)CCOCCOCCOCCOCCOCCOCCOCCOCCOCCOCCOCCOCCOCCOCCOCCOCCOCCC(=O)NCCCC[C@@H]2NC(=O)[C@H](C(C)C)NC(=O)[C@H](CC(=O)O)NC(=O)[C@H](C(C)(C)C)NC(=O)[C@H](Cc3c[nH]c4ccccc34)NC(=O)[C@H](Cc3c[nH]c4ccccc34)NC(=O)CSC[C@@H](C(=O)NCC(N)=O)NC(=O)[C@H](CC(=O)O)NC(=O)[C@H](CCc3ccc(O)cc3)NC(=O)[C@H](Cc3ccccc3)NC(=O)[C@H](Cc3ccc(O)cc3)NC(=O)[C@H](CC(C)C)NC(=O)[C@H](CC(=O)O)NC(=O)[C@H](CC(N)=O)NC2=O)NC(=O)[C@H](C(C)C)NC(=O)[C@H](CC(=O)O)NC(=O)[C@H](C(C)(C)C)NC(=O)[C@H](Cc2c[nH]c3ccccc23)NC(=O)[C@H](Cc2c[nH]c3ccccc23)NC(=O)CSC[C@@H](C(=O)NCC(N)=O)NC(=O)[C@H](CC(=O)O)NC(=O)[C@H](CCc2ccc(O)cc2)NC(=O)[C@H](Cc2ccccc2)NC(=O)[C@H](Cc2ccc(O)cc2)NC1=O` [compound 47] (I: {CH2CO}-WW[Tle]DVKNDLYF[hTyr]DCG-NH2 / II: {CH2CO}-WW[Tle]DVKNDLYF[hTyr]DCG-NH2; linker I:6-II:6 via CO(CH2)2(OCH2CH2)17CO; thioether I:N-I:14, II:N-II:14) the figure was 3-C (50% or more activity at 20 nM). Same read-out and setting: with `CC(C)[C@@H]1NC(=O)[C@H](CC(=O)O)NC(=O)[C@H](C(C)(C)C)NC(=O)[C@H](Cc2c[nH]c3ccccc23)NC(=O)[C@H](Cc2c[nH]c3ccccc23)NC(=O)CSC[C@@H](C(=O)NCC(N)=O)NC(=O)[C@H](CC(=O)O)NC(=O)[C@H](CCc2ccc(O)cc2)NC(=O)[C@H](Cc2ccc(NC(=N)N)cc2)NC(=O)[C@H](Cc2ccc(O)cc2)NC(=O)[C@H](CC(C)(C)C)NC(=O)[C@H](CC(=O)O)NC(=O)[C@H](CC(=O)O)NC(=O)[C@H](CCCCNC(=O)OCCOCCOCCOCCOCCOCCOCCOCCOCCOCCOCCOCCOCCOCCOCCOCCOC(=O)NCCCC[C@@H]2NC(=O)[C@H](C(C)C)NC(=O)[C@H](CC(=O)O)NC(=O)[C@H](C(C)(C)C)NC(=O)[C@H](Cc3c[nH]c4ccccc34)NC(=O)[C@H](Cc3c[nH]c4ccccc34)NC(=O)CSC[C@@H](C(=O)NCC(N)=O)NC(=O)[C@H](CC(=O)O)NC(=O)[C@H](CCc3ccc(O)cc3)NC(=O)[C@H](Cc3ccc(NC(=N)N)cc3)NC(=O)[C@H](Cc3ccc(O)cc3)NC(=O)[C@H](CC(C)(C)C)NC(=O)[C@H](CC(=O)O)NC(=O)[C@H](CC(=O)O)NC2=O)NC1=O` [compound 53] (I: {CH2CO}-WW[Tle]DVKDD[tBuAla]Y[Phe(4-guanidino)][hTyr]DCG-NH2 / II: {CH2CO}-WW[Tle]DVKDD[tBuAla]Y[Phe(4-guanidino)][hTyr]DCG-NH2; linker I:6-II:6 via X1; thioether I:N-I:14, II:N-II:14) the figure was 3-B (50% or more activity at 5 nM).

The same experiment, now with this note: 10 minutes stimulation, % activity, maximum VEGF165a signal = 100%, unstimulated = 0%, peptide 10, 100 nM (dimer structures 2-41).
For the compound `CC(C)C[C@@H]1NC(=O)[C@H](CC(=O)O)NC(=O)CNC(=O)[C@H](CCC(N)=O)NC(=O)[C@H](C(C)C)NC(=O)[C@H](CC(=O)O)NC(=O)[C@H](C(C)C)NC(=O)[C@H](Cc2c[nH]c3ccccc23)NC(=O)[C@H](Cc2c[nH]c3ccccc23)NC(=O)CSC[C@@H](C(=O)NCC(=O)NCCOCCOCCOCCOCCOCCOCCOCCOCCOCCOCCOCCOCCC(=O)NCCCC[C@H](NC(=O)CCOCCOCCOCCOCCOCCOCCOCCOCCOCCOCCOCCOCCNC(=O)CNC(=O)[C@@H]2CSCC(=O)N[C@@H](Cc3c[nH]c4ccccc34)C(=O)N[C@@H](Cc3c[nH]c4ccccc34)C(=O)N[C@@H](C(C)C)C(=O)N[C@@H](CC(=O)O)C(=O)N[C@@H](C(C)C)C(=O)N[C@@H](CCC(N)=O)C(=O)NCC(=O)N[C@@H](CC(=O)O)C(=O)N[C@@H](CC(C)C)C(=O)N[C@@H](Cc3ccc(O)cc3)C(=O)N[C@@H](Cc3ccccc3)C(=O)N[C@@H](C(C)C)C(=O)N[C@@H](CC(=O)O)C(=O)N2)C(N)=O)NC(=O)[C@H](CC(=O)O)NC(=O)[C@H](C(C)C)NC(=O)[C@H](Cc2ccccc2)NC(=O)[C@H](Cc2ccc(O)cc2)NC1=O` [compound 7] (I: {CH2CO}-WWVDVQGDLYFVDCG[PEG12]K-NH2 / II: {CH2CO}-WWVDVQGDLYFVDCG[PEG12]; amide I:17-II:C; thioether I:N-I:14, II:N-II:14), the “pVEGFR2 Assay Results” value is recorded as 2-C (1% or more but less than 50% activity at 100 nM). Same read-out and setting: then `CC(C)C[C@@H]1NC(=O)[C@H](CC(=O)O)NC(=O)[C@H](CC(=O)O)NC(=O)[C@H](CCC(N)=O)NC(=O)[C@H](C(C)C)NC(=O)[C@H](CC(=O)O)NC(=O)[C@H](C(C)C)NC(=O)[C@H](Cc2c[nH]c3ccccc23)NC(=O)[C@H](Cc2c[nH]c3ccccc23)NC(=O)CSC[C@@H](C(=O)NCC(=O)NCCOCCOCCOCCOCCOCCOCCOCCOCCOCCOCCOCCOCCC(=O)NCCCC[C@H](NC(=O)CCOCCOCCOCCOCCOCCOCCOCCOCCOCCOCCOCCOCCNC(=O)CNC(=O)[C@@H]2CSCC(=O)N[C@@H](Cc3c[nH]c4ccccc34)C(=O)N[C@@H](Cc3c[nH]c4ccccc34)C(=O)N[C@@H](C(C)C)C(=O)N[C@@H](CC(=O)O)C(=O)N[C@@H](C(C)C)C(=O)N[C@@H](CCC(N)=O)C(=O)N[C@@H](CC(=O)O)C(=O)N[C@@H](CC(=O)O)C(=O)N[C@@H](CC(C)C)C(=O)N[C@@H](Cc3ccc(O)cc3)C(=O)N[C@@H](Cc3ccccc3)C(=O)N[C@@H](C(C)C)C(=O)N[C@@H](CO)C(=O)N2)C(N)=O)NC(=O)[C@H](CO)NC(=O)[C@H](C(C)C)NC(=O)[C@H](Cc2ccccc2)NC(=O)[C@H](Cc2ccc(O)cc2)NC1=O` [compound 11] (I: {CH2CO}-WWVDVQDDLYFVSCG[PEG12]K-NH2 / II: {CH2CO}-WWVDVQDDLYFVSCG[PEG12]; amide I:17-II:C; thioether I:N-I:14, II:N-II:14), with 2-C (1% or more but less than 50% activity at 100 nM).

Source of the values: EP4748847A1, “PEPTIDE COMPLEX HAVING VEGFR -2 AGONIST ACTIVITY” (Peptidream Inc, priority 2023, dated 2025).
